Assay results reported in patent US20110028559A1, “SUBSTITUTED FLUOROETHYL UREAS AS ALPHA 2 ADRENERGIC AGENTS” (priority 2007, published 2011).

Target: T1, Alpha 2C (Homo sapiens, UniProt P18825)
T1 sequence (P18825 1-462): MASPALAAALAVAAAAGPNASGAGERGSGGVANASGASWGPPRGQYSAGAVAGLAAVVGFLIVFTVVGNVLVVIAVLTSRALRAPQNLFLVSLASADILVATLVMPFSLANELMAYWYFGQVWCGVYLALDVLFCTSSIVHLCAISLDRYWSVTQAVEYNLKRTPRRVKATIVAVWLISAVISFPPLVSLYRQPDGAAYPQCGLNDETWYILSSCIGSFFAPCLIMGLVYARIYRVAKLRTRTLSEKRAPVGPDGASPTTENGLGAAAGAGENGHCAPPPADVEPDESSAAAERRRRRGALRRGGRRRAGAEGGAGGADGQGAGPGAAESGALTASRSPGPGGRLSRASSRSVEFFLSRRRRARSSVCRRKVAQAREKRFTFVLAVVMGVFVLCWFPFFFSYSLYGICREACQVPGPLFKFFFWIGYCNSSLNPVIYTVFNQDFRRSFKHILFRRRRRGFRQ
Assay: Alpha 2C adrenergic receptor functional activity (procedure of U.S. 60/911,442)
Assay type: cell-based
Excerpt: U.S. Provisional Patent Application Ser. No. 60/911,442, filed Apr. 12, 2007, describes the procedure used to obtain the data in the table below. That procedure is incorporated by reference herein.

Alpha 2C EC50: not active
SMILES: CCC[C@@H]1CCCC[C@H]1NC(=O)NCCF [1-(2-Fluoro-ethyl)-3-(2R-propyl-1R-cyclohexyl)-urea]
